Experimental data from US12552812B2, “Pyridone multiple-membered ring derivatives and use thereof” (priority 2021, dated 2026).
Where two headings read alike, the source gives them in different places.

Key:
[1] = test system: influenza virus A/PR/8/34 (H1N1); test: Influenza virus cytopathic effect (CPE) assay in MDCK cells; format: cell-based; settings: 120 h, 5 days, CCK8
in vitro [2] = format: in vitro ADME; settings: 2 μM, 37° C., 4 hours, read-out: Plasma protein binding (PPB) unbound (%)
Procedure: (§1) Experimental purpose: To evaluate the protein binding rate of the compounds of the present disclosure in the plasma of CD-1 mouse, SD rat, and human using equilibrium dialysis.
(§2) Experimental protocol: The test compounds were diluted with dialysis buffer into the plasma of the above […] to prepare samples with a final concentration of 2 μM. The samples were then added to a 96-well equilibrium dialysis device and dialyzed using phosphate buffer solution at 37° C. for 4 hours. Warfarin was used as a control compound in the experiment. The concentration of the test compounds and warfarin in the plasma and buffer was determined using LC-MS/MS.

in vitro [3] = format: in vitro ADME, CD-1 mouse; settings: CD-1; mouse (M) plasma, 2 μM, 37° C., 4 hours; read-out: Plasma protein binding (PPB) unbound (%)
Procedure: as §1, §2

in vivo [4] = test: in vivo; design: species or system male SD rats; settings: male, SD, iv, 1 mg/kg, rat, 1 mpk
Procedure: Experimental purpose: To investigate the plasma pharmacokinetics of the compounds of the present disclosure in male SD rats after a single intravenous injection or an oral administration.
Experimental animals: male SD rats, 6 to 8 weeks old, weighing between 200 to 300 g;
Experimental procedure: Injection administration (i.v.) was carried out with a dose of 1 mpk, at a concentration of 0.50 mg/mL, with a vehicle of 40% DMAC+40% PG+20% (20% HP-β-CD+water). Oral administration (po) was carried out with a dose of 10 mpk, at a concentration of 1 mg/mL, with a vehicle of 3% DMSO+10% solutol HS+87% water.
(§3) Sample collection: At each time point, 0.03 mL of blood samples were collected from the experimental animals through a puncture of the saphenous vein. The actual blood collection time was recorded. All blood samples were kept in commercially available 1.5 mL EDTA-K2 anticoagulant tubes. After blood sample collection, DDV was added into the plasma matrix as a stabilizer, wherein the ratio of plasma to Dichlorvos (DDV) solution was 40:1. The DDV solution was a 40 mM DDV solution in acetonitrile/water (1:1). Within half an hour, the mixture was centrifuged at 4° C. and 3000 g for 10 minutes. The supernatant plasma was aspirated, quickly placed in dry ice, and stored in a −80° C. refrigerator for LC-MS/MS analysis.
Data analysis: A non-compartmental model in Phoenix WinNonlin 6.3 pharmacokinetic software was used to process the plasma concentration data. The pharmacokinetic parameters were calculated using the linear-log trapezoidal method: Cl (apparent clearance rate), T1/2 (the time required to clear half of the compound), Cmax (peak concentration), and AUC0-last (integral area under the concentration-time curve from 0 to the last sampling time).

in vivo [5] = test: in vivo; design: species or system male beagle dogs; settings: male, iv, 1 mg/kg, beagle dog, 1 mpk
Procedure: Experimental purpose: To investigate the plasma pharmacokinetics of the compounds of the present disclosure in male beagle dogs after a single intravenous injection or an oral administration.
Experimental animals: male beagle dogs, >6 months old, weighing between 6 to 12 kg.
Experimental procedure: Injection administration (i.v.) was carried out with a dose of 1 mpk, at a concentration of 1 mg/mL, with a vehicle of 10% DMAC+90% (20% HP-β-CD+water). Oral administration (po) was carried out with a dose of 10 mpk, at a concentration of 2 mg/mL, with a vehicle of 3% DMSO+10% solutol HS+87% water.
as §3, with “0.8” for “0.03”
Data analysis: A non-compartmental model in Phoenix WinNonlin 6.3 pharmacokinetic software was used to process the plasma concentration data. The pharmacokinetic parameters were calculated using the linear-log trapezoidal method: Cl, T1/2, Cmax, and AUC0-last.

[6] = test system: influenza A virus A/PR/8/34 (H1N1); format: in vivo, BALB/c mice; settings: for Survival rate (percentage): end of the experiment (day 14); for Maximum rate of weight loss / day N of maximum rate of weight loss: mouse, in vivo

In the case of `O=C1c2c(O)c(=O)ccn2N([C@H]2c3ccc(F)c(F)c3C[Se]c3cccnc32)[C@@H]2COCCN12` [Compound 3], the EC50 [1] is reported as 2.8 nM, the fraction unbound (in vitro [2]; SD, rat (R) plasma) is reported as 0.313 and the fraction unbound (in vitro [2]; crab-eating macaque (C) plasma) is reported as 0.316. For the same compound, the fraction unbound (in vitro [2]; dog (D) plasma) was 0.246, the fraction unbound (in vitro [2]; human (H) plasma) was 0.259 and the fraction unbound (in vitro [3]) was 0.137. For the same compound, the AUC(0-t) (in vivo [4]) was 0.171 µM·h, the clearance (in vivo [4]) was 178 mL/min/kg and the half-life (in vivo [4]) was 1.7 h. For the same compound, the AUC(0-t) (in vivo [5]) was 0.83 µM·h, the clearance (in vivo [5]) was 36.8 mL/min/kg and the half-life (in vivo [5]) was 3.7 h.

Work on `O=C1c2c(O)c(=O)ccn2N([C@@H]2c3ccc(F)c(F)c3C[Se]c3cccnc32)[C@@H]2COCCN12` [Compound 3′] yielded an EC50 [1] of 157 nM.

In the case of `COC(=O)OCOc1c2n(ccc1=O)N([C@H]1c3ccc(F)c(F)c3C[Se]c3cccnc31)[C@@H]1COCCN1C2=O` [Compound 4], the “Survival rate (percentage)” value [6] is reported as 100%, the “Maximum rate of weight loss” value [6] is reported as 7.03% and the “day N of maximum rate of weight loss” value [6] is reported as 3 days.

In the case of `COC(=O)OCOc1c2n(ccc1=O)N([C@@H]1c3ccccc3[Se]Cc3c1ccc(F)c3F)[C@@H]1COCCN1C2=O` [Compound 5], the “Survival rate (percentage)” value [6] is reported as 100%, the “Maximum rate of weight loss” value [6] is reported as 13.77% and the “day N of maximum rate of weight loss” value [6] is reported as 7 days.
